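Cultured in 96-well plates, cells were exposed to test compound for 48 hours across five concentrations. TGI denotes the concentration required for complete inhibition of growth.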
What was measured:
Assay in all cases: NCI tumour cell line growth inhibition, 48 h
SF-268 CNS = tested on: SF-268 CNS
OVCAR-4 ovarian = tested on: OVCAR-4 ovarian
DMS 273 small cell lung = tested on: DMS 273 small cell lung
A498 renal = tested on: A498 renal
786-0 renal = tested on: 786-0 renal
M19-MEL melanoma = tested on: M19-MEL melanoma
IGROV1 ovarian = tested on: IGROV1 ovarian
NCI-H522 lung = tested on: NCI-H522 lung
SK-MEL-28 melanoma = tested on: SK-MEL-28 melanoma
SNB-78 CNS = tested on: SNB-78 CNS
OVCAR-5 ovarian = tested on: OVCAR-5 ovarian
COLO 205 colon = tested on: COLO 205 colon
NCI-H460 lung = tested on: NCI-H460 lung
SF-539 CNS = tested on: SF-539 CNS
SW-620 colon = tested on: SW-620 colon
MALME-3M melanoma = tested on: MALME-3M melanoma
M14 melanoma = tested on: M14 melanoma
SK-OV-3 ovarian = tested on: SK-OV-3 ovarian
UACC-62 melanoma = tested on: UACC-62 melanoma
TK-10 renal = tested on: TK-10 renal
SF-295 CNS = tested on: SF-295 CNS
HL-60(TB) leukemia = tested on: HL-60(TB) leukemia
HCT-116 colon = tested on: HCT-116 colon
DMS 114 small cell lung = tested on: DMS 114 small cell lung
OVCAR-8 ovarian = tested on: OVCAR-8 ovarian
OVCAR-3 ovarian = tested on: OVCAR-3 ovarian
UACC-257 melanoma = tested on: UACC-257 melanoma
EKVX NSCLC = tested on: EKVX NSCLC
CAKI-1 renal = tested on: CAKI-1 renal
A549 NSCLC = tested on: A549 NSCLC
MOLT-4 leukemia = tested on: MOLT-4 leukemia
KM12 colon = tested on: KM12 colon
NCI-H23 lung = tested on: NCI-H23 lung
SNB-75 CNS = tested on: SNB-75 CNS
LXFL 529 NSCLC = tested on: LXFL 529 NSCLC
KM20L2 colon = tested on: KM20L2 colon
HOP-18 NSCLC = tested on: HOP-18 NSCLC
SK-MEL-2 melanoma = tested on: SK-MEL-2 melanoma
CCRF-CEM leukemia = tested on: CCRF-CEM leukemia
SN12C renal = tested on: SN12C renal
XF 498 CNS = tested on: XF 498 CNS
HCT-15 colon = tested on: HCT-15 colon
U251 CNS = tested on: U251 CNS
HCC-2998 colon = tested on: HCC-2998 colon
DLD-1 colon = tested on: DLD-1 colon
SK-MEL-5 melanoma = tested on: SK-MEL-5 melanoma
UO-31 renal = tested on: UO-31 renal
RXF 393 renal = tested on: RXF 393 renal
LOX IMVI melanoma = tested on: LOX IMVI melanoma
ACHN renal = tested on: ACHN renal
SNB-19 CNS = tested on: SNB-19 CNS
RXF-631 renal = tested on: RXF-631 renal
K-562 leukemia = tested on: K-562 leukemia
MCF7 breast = tested on: MCF7 breast
NCI/ADR-RES ovarian = tested on: NCI/ADR-RES ovarian
HOP-62 NSCLC = tested on: HOP-62 NSCLC
NCI-H226 lung = tested on: NCI-H226 lung
HT29 colon = tested on: HT29 colon
SN12K1 renal = tested on: SN12K1 renal
P388 leukemia = tested on: P388 leukemia
RPMI-8226 leukemia = tested on: RPMI-8226 leukemia
HOP-92 NSCLC = tested on: HOP-92 NSCLC
P388/ADR leukemia = tested on: P388/ADR leukemia

Measured: TGI

O=S(O)CCCCSSCCCCSSCCCCS(=O)O
83.6 µM: COLO 205 colon
> 100 µM: SF-268 CNS | DMS 273 small cell lung | A498 renal | 786-0 renal | M19-MEL melanoma | IGROV1 ovarian | SK-MEL-28 melanoma | OVCAR-5 ovarian | NCI-H460 lung | SF-539 CNS | SW-620 colon | SK-OV-3 ovarian | SF-295 CNS | HCT-116 colon | DMS 114 small cell lung | OVCAR-8 ovarian | OVCAR-3 ovarian | UACC-257 melanoma | CAKI-1 renal | A549 NSCLC | KM12 colon | NCI-H23 lung | SNB-75 CNS | KM20L2 colon | HOP-18 NSCLC | SK-MEL-2 melanoma | SN12C renal | HCT-15 colon | U251 CNS | HCC-2998 colon | DLD-1 colon | UO-31 renal | RXF 393 renal | LOX IMVI melanoma | ACHN renal | SNB-19 CNS | RXF-631 renal | K-562 leukemia
28.4 µM: LXFL 529 NSCLC
35.6 µM: NCI-H522 lung
84.2 µM: MALME-3M melanoma
30.6 µM: HL-60(TB) leukemia
33.9 µM: OVCAR-4 ovarian
66.3 µM: EKVX NSCLC
24.3 µM: SK-MEL-5 melanoma
64.6 µM: CCRF-CEM leukemia
21.4 µM: XF 498 CNS
43.9 µM: MOLT-4 leukemia
26.5 µM: M14 melanoma
55.3 µM: UACC-62 melanoma
91.4 µM: TK-10 renal
70.5 µM: SNB-78 CNS

CC(C(=O)O)c1cnn(-c2ccccc2)c1-n1cccc1 (centres undefined)
> 100 µM: SF-268 CNS | OVCAR-4 ovarian | DMS 273 small cell lung | A498 renal | M19-MEL melanoma | IGROV1 ovarian | NCI-H522 lung | SK-MEL-28 melanoma | SNB-78 CNS | OVCAR-5 ovarian | COLO 205 colon | NCI-H460 lung | SF-539 CNS | SW-620 colon | MALME-3M melanoma | SK-OV-3 ovarian | MCF7 breast | UACC-62 melanoma | SF-295 CNS | HL-60(TB) leukemia | HCT-116 colon | OVCAR-8 ovarian | OVCAR-3 ovarian | UACC-257 melanoma | EKVX NSCLC | CAKI-1 renal | A549 NSCLC | MOLT-4 leukemia | NCI/ADR-RES ovarian | KM12 colon | NCI-H23 lung | SNB-75 CNS | HOP-62 NSCLC | NCI-H226 lung | KM20L2 colon | HOP-18 NSCLC | HT29 colon | SK-MEL-2 melanoma | SN12K1 renal | P388 leukemia | RPMI-8226 leukemia | CCRF-CEM leukemia | SN12C renal | XF 498 CNS | HCT-15 colon | HOP-92 NSCLC | U251 CNS | HCC-2998 colon | DLD-1 colon | SK-MEL-5 melanoma | UO-31 renal | RXF 393 renal | LOX IMVI melanoma | P388/ADR leukemia | SNB-19 CNS | K-562 leukemia
